Experimental data published in paper PMC9995496, “A screen for MeCP2-TBL1 interaction inhibitors using a luminescence-based assay” (Scientific Reports, 2023).
Where a name gives a salt, the structure may show the parent alone.

tested on: PRKACA-PRKAR2A interaction (SmBiT-PRKACA / LgBiT-PRKAR2A), protein kinase A; set-up: NanoLuc complementation counter-screen in cell extract, PRKACA with PRKAR2A, loss of luminescence, detects NanoLuc interference; conditions: counter-screen for NanoLuc interference, 0.5 h, 20 µM, inhibitor, Inh (PKA)

SMILES | Inh (PKA) [%]
CN(c1ncccc1CNc1nc(Nc2ccc3c(c2)CC(=O)N3)ncc1C(F)(F)F)S(C)(=O)=O [UM0141980:01, PF-562271] | 55.16
CC(=O)c1c(C)c2cnc(Nc3ccc(N4CCNCC4)cn3)nc2n(C2CCCC2)c1=O [UM0141983:01, PD 0332991 (Palbociclib) HCl] | 11.32
CN(c1ncccc1CNc1nc(Nc2ccc3c(c2)CC(=O)N3)ncc1C(F)(F)F)S(C)(=O)=O [UM0141986:01, PF-00562271] | 56.79
c1ccc2c(-c3cnn4cc(-c5ccc(N6CCNCC6)cc5)cnc34)ccnc2c1 [UM0141989:01, LDN-193189] | 1.838
COc1cc(Nc2ncc(F)c(Nc3ccc4c(n3)N(COP(=O)(O)O)C(=O)C(C)(C)O4)n2)cc(OC)c1OC [UM0141996:01, R788 disodium] | 11.53
CC(=O)c1c(C)c2cnc(Nc3ccc(N4CCNCC4)cn3)nc2n(C2CCCC2)c1=O [UM0141999:01, Palbociclib (PD0332991) Isethionate] | 9.751
CN(c1ncccc1CNc1nc(Nc2ccc3c(c2)CC(=O)N3)ncc1C(F)(F)F)S(C)(=O)=O [UM0142004:01, PF-562271 HCl] | 48.82
Cc1ccc(Nc2nccc(N(C)c3ccc4c(C)n(C)nc4c3)n2)cc1S(N)(=O)=O [UM0142006:01, Pazopanib Hydrochloride] | 14.36
CCCCCCOC(=O)NC(=N)c1ccc(NCc2nc3cc(C(=O)N(CCC(=O)OCC)c4ccccn4)ccc3n2C)cc1 [UM0142023:01, BIBR-1048] | 4.293

same assay, conditions: counter-screen for NanoLuc interference; 0.5 h, 20 µM; inhibitor

SMILES | Inh (PKA) [%]
c1ccc2c(Oc3nc(Nc4ccc(N5CCOCC5)cc4)c4ncn(C5CCCCC5)c4n3)cccc2c1 [UM0141962:01, Purmorphamine] | 11.44
CCCC(=O)Nc1cccc(NC(=O)c2ccccc2Br)c1 [UM0141963:01, ML161] | 3.147
Cc1ccc2c(=O)c3cccc(CC(=O)O)c3oc2c1C [UM0141964:01, DMXAA (Vadimezan)] | 2.691
CNC(=O)c1cc(Oc2ccc(NC(=O)c3cccc(C(F)(F)F)c3)cc2)ccn1 [UM0141965:01, SKLB610] | 8.796
CCO[C@@H]1OC(=O)C[C@@H]1NC(=O)[C@@H]1CCCN1C(=O)[C@@H](NC(=O)c1ccc(N)c(Cl)c1)C(C)(C)C [UM0141966:01, VX-765] | 0.4442
CCCNC(=O)[C@H]1O[C@@H]1C(=O)N[C@H](C(=O)N1CCC[C@H]1C(=O)OC)[C@@H](C)CC [UM0141967:01, CA-074 Me] | -0.4464
FC(F)c1nc2ccccc2n1-c1nc(N2CCOCC2)nc(N2CCOCC2)n1 [UM0141969:01, ZSTK474] | 3.548
NC(=O)c1ccc(-c2nc(-c3ccccn3)c(-c3ccc4c(c3)OCO4)[nH]2)cc1 [UM0141970:01, SB 431542] | 22.36
COc1cc(N2CCC(N3CCN(C)CC3)CC2)ccc1Nc1ncc(Cl)c(Nc2ccccc2S(=O)(=O)C(C)C)n1 [UM0141971:01, TAE684 (NVP-TAE684)] | 23
COC(=O)c1ccc2c(c1)NC(=O)/C2=C(\Nc1ccc(N(C)C(=O)CN2CCN(C)CC2)cc1)c1ccccc1 [UM0141972:01, Nintedanib (BIBF 1120)] | 17.71
CCN(CC)CCNC(=O)c1c(C)[nH]c(/C=C2\C(=O)Nc3ccc(F)cc32)c1C [UM0141973:01, Sunitinib malate] | 55.62
Cc1cc(C)nc(NS(=O)(=O)c2ccc(NC(=S)NC(=O)COc3ccc(Br)cc3Cl)cc2)n1 [UM0141974:01, ZCL278] | 9.562
CN(C)CCCCC(=O)Nc1ccc(NC(=S)NC(=O)c2ccc(C(C)(C)C)cc2)cc1 [UM0141976:01, Tenovin-6] | 9.354
Cc1ccc(NC(=O)Nc2cc(C(F)(F)F)ccc2F)cc1Nc1ccc2c(c1)NC(=O)/C2=C\c1ccc[nH]1 [UM0141977:01, GNF-5837] | 11.58
CNC(=O)c1ccc(C)c(-n2c(C)cc(OCc3ccc(F)cc3F)c(Br)c2=O)c1 [UM0141978:01, PH-797804] | 5.099
CCC(=O)N1CCN(c2ccc(-n3c(=O)ccc4cnc5ccc(-c6cnc7ccccc7c6)cc5c43)cc2C(F)(F)F)CC1 [UM0141981:01, Torin 1] | 8.063
Cn1c(Nc2ccc(C(F)(F)F)cc2)nc2cc(Oc3ccnc(-c4ncc(C(F)(F)F)[nH]4)c3)ccc21 [UM0141982:01, RAF265] | 1.298
COc1cc2ncnc(Nc3ccc(F)c(Cl)c3)c2cc1NC(=O)/C=C/CN1CCCCC1 [UM0141985:01, Dacomitinib (PF299804, PF299)] | 10.53
CCOc1cc2ncc(C#N)c(Nc3ccc(OCc4ccccn4)c(Cl)c3)c2cc1NC(=O)/C=C/CN(C)C [UM0141987:01, Neratinib (HKI-272)] | 9.342
CCC[C@H](NC(=O)/C(C#N)=C/c1cccc(Br)n1)c1ccccc1 [UM0141988:01, WP1130] | 8.904
O=C1NC(=O)[C@@H](c2cn3c4c(cccc24)CCC3)[C@@H]1c1c[nH]c2ccccc12 [UM0141990:01, Tivantinib (ARQ 197)] | 34.28
Cc1ncc(-c2ccnc(Nc3ccc(S(C)(=O)=O)cc3)n2)n1C(C)C [UM0141991:01, AZD-5438] | 13.33
Cc1cc(Nc2ncc(Cl)c(Nc3ccccc3S(=O)(=O)C(C)C)n2)c(OC(C)C)cc1C1CCNCC1 [UM0141993:01, LDK378] | 11.01
Nc1nc(Nc2ccc3c(c2)CCC(N2CCCC2)CC3)nn1-c1cc2c(nn1)-c1ccccc1CCC2 (stereo not drawn) [UM0141994:01, R428] | 28.03

SMILES | Inh (PKA) [%]
O=C(O)c1ccc2c(c1)nc(Nc1cccc(Cl)c1)c1ccncc12 [UM0141995:01, CX-4945 (Silmitasertib)] | 36.81
Cc1ccc([C@@H]2O[C@H](CO)[C@@H](O)[C@H](O)[C@H]2O)cc1Cc1ccc(-c2ccc(F)cc2)s1 [UM0141997:01, Canagliflozin] | 13.33
C[C@]1(O)C[C@@H](c2nc(-c3ccc4ccc(-c5ccccc5)nc4c3)c3c(N)nccn32)C1 [UM0141998:01, Linsitinib] | 15.97
C[C@@H]1CN(CC(=O)Nc2ccc3c(c2)Cc2cccc(-c4cc(=O)cc(N5CCOCC5)o4)c2S3)C[C@H](C)O1 [UM0142000:01, KU-60019] | 8.664
Cc1cnc(CNC(=O)c2c(=O)c3ccc(N4CCCN(C)CC4)nc3n3c2sc2ccccc23)cn1 [UM0142001:01, CX-5461] | 4.891
Cc1ccc(S(=O)(=O)OCC(=O)Nc2ccc(C(=O)O)c(O)c2)cc1 [UM0142002:01, NSC 74859] | 1.866
Cc1nc(NC(=O)N2CCC[C@H]2C(N)=O)sc1-c1ccnc(C(C)(C)C(F)(F)F)c1 [UM0142005:01, BYL-719] | 2.69
Cc1cccc(-c2nn3c(c2-c2ccnc4ccc(C(N)=O)cc24)CCC3)n1 [UM0142007:01, LY2157299] | 1.976
COC(=O)N1CCN(Cc2cccc(NC(=O)Nc3ccc(C)nc3)c2F)CC1 [UM0142008:01, Omecamtiv mecarbil] | 3.022
COc1cc(CCc2cc(NC(=O)c3ccc(N4C[C@@H](C)N[C@@H](C)C4)cc3)n[nH]2)cc(OC)c1 [UM0142009:01, AZD4547] | 12.3
Cc1ccc(NC(=O)C2(c3ccc4c(c3)OC(F)(F)O4)CC2)nc1-c1cccc(C(=O)O)c1 [UM0142010:01, VX-809] | 21.09
Cn1cnc(N)c2ncnc1-2 [UM0142011:01, 3-Methyladenine] | 0.4537
Oc1ncnc2[nH]ncc12 [UM0142014:01, Allopurinol] | -0.9072
CC1CNc2c(cccc2S(=O)(=O)N[C@@H](CCCNC(=N)N)C(=O)N2CC[C@@H](C)C[C@@H]2C(=O)O)C1 (stereo partly drawn) [UM0142015:01, Argatroban] | 1.414
CNC(=O)c1ccc(N2C(=S)N(c3cnc(C#N)c(C(F)(F)F)c3)C(=O)C23CCC3)cc1F [UM0142016:01, ARN-509] | 2.375
C=CC(=O)Nc1ccc2ncnc(Nc3ccc(OCc4cccc(F)c4)c(Cl)c3)c2c1 [UM0142018:01, AST-1306] | 12.53
CNC(=O)c1cccc(-c2ccc3c(N4CCOC[C@@H]4C)nc(N4CCOC[C@@H]4C)nc3n2)c1 [UM0142021:01, AZD2014] | 7.565
CNC(=O)CN1CCC(Oc2cc3c(Nc4cccc(Cl)c4F)ncnc3cc2OC)CC1 [UM0142022:01, AZD8931 (Sapitinib)] | 6.017
CCCCOc1c(C(=O)c2c(F)cc(C)cc2F)c[nH]c2nncc1-2 [UM0142024:01, BMS265246] | 6.004
O=c1[nH]c2ccc(Cl)cc2c(N[C@@H]2CN3CCC2CC3)c1-c1nc2ccccc2[nH]1 [UM0142025:01, CHIR-124] | 30.1
Nc1nc(NCCNc2ncc(-n3ccnc3)c(-c3ccc(Cl)cc3Cl)n2)ccc1[N+](=O)[O-] [UM0142026:01, CHIR-98014] | 80.31
CN(C)C(=O)[C@H](O)[C@H](Cc1ccccc1)NC(=O)c1cc2cc(Cl)ccc2[nH]1 [UM0142029:01, CP-91149] | 53.3
O=c1[nH]cnc2c1ncn2[C@H]1CC[C@@H](CO)O1 [UM0142031:01, Didanosine] | -1.093
CCc1cnn2c(NCc3ccc[n+]([O-])c3)cc(N3CCCC[C@H]3CCO)nc12 [UM0142032:01, Dinaciclib (SCH727965)] | 1.224
